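Cells were grown in 96-well plates and exposed to each compound for 48 hours at five concentrations; endpoints were interpolated linearly between bracketing concentrations, or set to the highest concentration if not reached. TGI: concentration producing complete growth inhibition.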
How the values were obtained:
Assay in all cases: NCI-60 cell line screen, 48 h
SW-620 colon = system: SW-620 colon
786-0 renal = system: 786-0 renal
DU-145 prostate = system: DU-145 prostate
SNB-19 CNS = system: SNB-19 CNS
SK-MEL-5 melanoma = system: SK-MEL-5 melanoma
HCT-116 colon = system: HCT-116 colon
M14 melanoma = system: M14 melanoma
SF-268 CNS = system: SF-268 CNS
UACC-257 melanoma = system: UACC-257 melanoma
NCI-H522 lung = system: NCI-H522 lung
OVCAR-4 ovarian = system: OVCAR-4 ovarian
A549 NSCLC = system: A549 NSCLC
U251 CNS = system: U251 CNS
ACHN renal = system: ACHN renal
A498 renal = system: A498 renal
SK-MEL-28 melanoma = system: SK-MEL-28 melanoma
HOP-62 NSCLC = system: HOP-62 NSCLC
IGROV1 ovarian = system: IGROV1 ovarian
MCF7 breast = system: MCF7 breast
OVCAR-3 ovarian = system: OVCAR-3 ovarian
RPMI-8226 leukemia = system: RPMI-8226 leukemia
CCRF-CEM leukemia = system: CCRF-CEM leukemia
HT29 colon = system: HT29 colon
SF-295 CNS = system: SF-295 CNS
SK-OV-3 ovarian = system: SK-OV-3 ovarian
OVCAR-8 ovarian = system: OVCAR-8 ovarian
MALME-3M melanoma = system: MALME-3M melanoma
NCI-H23 lung = system: NCI-H23 lung
OVCAR-5 ovarian = system: OVCAR-5 ovarian
HCT-15 colon = system: HCT-15 colon
SK-MEL-2 melanoma = system: SK-MEL-2 melanoma
COLO 205 colon = system: COLO 205 colon
T-47D breast = system: T-47D breast
MDA-MB-435 = system: MDA-MB-435
KM12 colon = system: KM12 colon
SR leukemia = system: SR leukemia
PC-3 prostate = system: PC-3 prostate
BT-549 breast = system: BT-549 breast
NCI-H460 lung = system: NCI-H460 lung
HCC-2998 colon = system: HCC-2998 colon
MOLT-4 leukemia = system: MOLT-4 leukemia
NCI/ADR-RES ovarian = system: NCI/ADR-RES ovarian
CAKI-1 renal = system: CAKI-1 renal
EKVX NSCLC = system: EKVX NSCLC
UACC-62 melanoma = system: UACC-62 melanoma
LOX IMVI melanoma = system: LOX IMVI melanoma
HS 578T breast = system: HS 578T breast
SF-539 CNS = system: SF-539 CNS
HL-60(TB) leukemia = system: HL-60(TB) leukemia
K-562 leukemia = system: K-562 leukemia
UO-31 renal = system: UO-31 renal
MDA-N = system: MDA-N
HOP-92 NSCLC = system: HOP-92 NSCLC
SNB-75 CNS = system: SNB-75 CNS
SN12C renal = system: SN12C renal
TK-10 renal = system: TK-10 renal
NCI-H226 lung = system: NCI-H226 lung
RXF 393 renal = system: RXF 393 renal
MDA-MB-231 breast = system: MDA-MB-231 breast

O=C(Nc1ccc(Cl)cc1)Oc1ccc(C(=S)Nc2ccc(Br)cc2)cc1
TGI (SW-620 colon): > 100 µM
TGI (786-0 renal): 48.6 µM
TGI (DU-145 prostate): > 100 µM
TGI (SNB-19 CNS): > 100 µM
TGI (SK-MEL-5 melanoma): 23 µM
TGI (HCT-116 colon): 54.4 µM
TGI (M14 melanoma): 36 µM
TGI (SF-268 CNS): > 100 µM
TGI (UACC-257 melanoma): > 100 µM
TGI (NCI-H522 lung): 37.2 µM
TGI (OVCAR-4 ovarian): 75.8 µM
TGI (A549 NSCLC): > 100 µM
TGI (U251 CNS): 75.5 µM
TGI (ACHN renal): > 100 µM
TGI (A498 renal): 54.9 µM
TGI (SK-MEL-28 melanoma): 48.4 µM
TGI (HOP-62 NSCLC): > 100 µM
TGI (IGROV1 ovarian): 25 µM
TGI (MCF7 breast): 70.2 µM
TGI (OVCAR-3 ovarian): 54.5 µM
TGI (RPMI-8226 leukemia): > 100 µM
TGI (CCRF-CEM leukemia): 20.9 µM
TGI (HT29 colon): 18.1 µM
TGI (SF-295 CNS): > 100 µM
TGI (SK-OV-3 ovarian): > 100 µM
TGI (OVCAR-8 ovarian): 22.7 µM
TGI (MALME-3M melanoma): 89.2 µM
TGI (NCI-H23 lung): 63.9 µM
TGI (OVCAR-5 ovarian): 38.4 µM
TGI (HCT-15 colon): 35.7 µM
TGI (SK-MEL-2 melanoma): 27.7 µM
TGI (COLO 205 colon): 23.6 µM
TGI (T-47D breast): 88.9 µM
TGI (MDA-MB-435): 38.6 µM
TGI (KM12 colon): 25.5 µM
TGI (SR leukemia): 36.7 µM
TGI (PC-3 prostate): > 100 µM
TGI (BT-549 breast): 54.1 µM
TGI (NCI-H460 lung): > 100 µM
TGI (HCC-2998 colon): 33.6 µM
TGI (MOLT-4 leukemia): 46.2 µM
TGI (NCI/ADR-RES ovarian): 61.4 µM
TGI (CAKI-1 renal): 35.8 µM
TGI (EKVX NSCLC): 19.6 µM
TGI (UACC-62 melanoma): 12.2 µM
TGI (LOX IMVI melanoma): 9.32 µM
TGI (HS 578T breast): > 100 µM
TGI (SF-539 CNS): 39.7 µM
TGI (HL-60(TB) leukemia): 18.1 µM
TGI (K-562 leukemia): 57.2 µM
TGI (UO-31 renal): > 100 µM
TGI (MDA-N): 67.2 µM

CC(=O)CC1(O)C(=O)c2c(Br)sc(Br)c2C1=O
TGI (SW-620 colon): 55.6 µM
TGI (786-0 renal): 57.6 µM
TGI (HOP-92 NSCLC): 34.7 µM
TGI (DU-145 prostate): > 100 µM
TGI (SNB-19 CNS): > 100 µM
TGI (SK-MEL-5 melanoma): 34.2 µM
TGI (HCT-116 colon): 35.8 µM
TGI (M14 melanoma): 33.1 µM
TGI (SF-268 CNS): 82.4 µM
TGI (UACC-257 melanoma): 41.4 µM
TGI (SNB-75 CNS): > 100 µM
TGI (NCI-H522 lung): 36.4 µM
TGI (OVCAR-4 ovarian): 36.4 µM
TGI (SN12C renal): 35.4 µM
TGI (A549 NSCLC): > 100 µM
TGI (U251 CNS): 53.5 µM
TGI (ACHN renal): > 100 µM
TGI (A498 renal): > 100 µM
TGI (SK-MEL-28 melanoma): 46 µM
TGI (HOP-62 NSCLC): 79.4 µM
TGI (IGROV1 ovarian): 35.9 µM
TGI (MCF7 breast): > 100 µM
TGI (OVCAR-3 ovarian): 31.7 µM
TGI (RPMI-8226 leukemia): > 100 µM
TGI (CCRF-CEM leukemia): 43 µM
TGI (HT29 colon): 53.8 µM
TGI (SF-295 CNS): > 100 µM
TGI (SK-OV-3 ovarian): > 100 µM
TGI (OVCAR-8 ovarian): 48 µM
TGI (MALME-3M melanoma): 33.2 µM
TGI (NCI-H23 lung): 39.2 µM
TGI (TK-10 renal): 56.8 µM
TGI (OVCAR-5 ovarian): 33.9 µM
TGI (HCT-15 colon): 45.7 µM
TGI (SK-MEL-2 melanoma): 46.7 µM
TGI (COLO 205 colon): 36.9 µM
TGI (T-47D breast): 83.9 µM
TGI (MDA-MB-435): 43.6 µM
TGI (KM12 colon): > 100 µM
TGI (SR leukemia): 49.9 µM
TGI (PC-3 prostate): 45.4 µM
TGI (BT-549 breast): 35.8 µM
TGI (NCI-H460 lung): > 100 µM
TGI (NCI-H226 lung): > 100 µM
TGI (HCC-2998 colon): 32.7 µM
TGI (MOLT-4 leukemia): > 100 µM
TGI (NCI/ADR-RES ovarian): > 100 µM
TGI (CAKI-1 renal): 32.1 µM
TGI (EKVX NSCLC): 55.8 µM
TGI (UACC-62 melanoma): 46 µM
TGI (LOX IMVI melanoma): 35 µM
TGI (RXF 393 renal): 51.7 µM
TGI (HS 578T breast): 95 µM
TGI (SF-539 CNS): 49.3 µM
TGI (HL-60(TB) leukemia): 50.5 µM
TGI (K-562 leukemia): 91 µM
TGI (UO-31 renal): 50.7 µM
TGI (MDA-N): 45.9 µM

C[C@]12CC[C@@H]3c4ccc(OS(N)(=O)=O)cc4CC[C@H]3[C@@H]1CCC2=O
TGI (SW-620 colon): > 100 µM
TGI (786-0 renal): > 100 µM
TGI (HOP-92 NSCLC): > 100 µM
TGI (DU-145 prostate): > 100 µM
TGI (SNB-19 CNS): > 100 µM
TGI (SK-MEL-5 melanoma): 38.8 µM
TGI (HCT-116 colon): > 100 µM
TGI (M14 melanoma): > 100 µM
TGI (SF-268 CNS): > 100 µM
TGI (UACC-257 melanoma): > 100 µM
TGI (SNB-75 CNS): > 100 µM
TGI (OVCAR-4 ovarian): > 100 µM
TGI (SN12C renal): > 100 µM
TGI (A549 NSCLC): > 100 µM
TGI (U251 CNS): > 100 µM
TGI (ACHN renal): > 100 µM
TGI (A498 renal): > 100 µM
TGI (SK-MEL-28 melanoma): > 100 µM
TGI (HOP-62 NSCLC): > 100 µM
TGI (IGROV1 ovarian): > 100 µM
TGI (MCF7 breast): > 100 µM
TGI (OVCAR-3 ovarian): > 100 µM
TGI (MDA-MB-231 breast): > 100 µM
TGI (RPMI-8226 leukemia): > 100 µM
TGI (CCRF-CEM leukemia): > 100 µM
TGI (HT29 colon): > 100 µM
TGI (SF-295 CNS): > 100 µM
TGI (SK-OV-3 ovarian): > 100 µM
TGI (OVCAR-8 ovarian): > 100 µM
TGI (MALME-3M melanoma): > 100 µM
TGI (NCI-H23 lung): > 100 µM
TGI (TK-10 renal): > 100 µM
TGI (OVCAR-5 ovarian): > 100 µM
TGI (HCT-15 colon): > 100 µM
TGI (SK-MEL-2 melanoma): > 100 µM
TGI (COLO 205 colon): > 100 µM
TGI (T-47D breast): > 100 µM
TGI (MDA-MB-435): > 100 µM
TGI (KM12 colon): > 100 µM
TGI (BT-549 breast): > 100 µM
TGI (NCI-H460 lung): > 100 µM
TGI (NCI-H226 lung): > 100 µM
TGI (HCC-2998 colon): > 100 µM
TGI (NCI/ADR-RES ovarian): > 100 µM
TGI (CAKI-1 renal): > 100 µM
TGI (EKVX NSCLC): > 100 µM
TGI (UACC-62 melanoma): > 100 µM
TGI (LOX IMVI melanoma): > 100 µM
TGI (RXF 393 renal): > 100 µM
TGI (HS 578T breast): > 100 µM
TGI (SF-539 CNS): > 100 µM
TGI (HL-60(TB) leukemia): > 100 µM
TGI (K-562 leukemia): > 100 µM
TGI (UO-31 renal): > 100 µM
TGI (MDA-N): > 100 µM

Source: PubChem BioAssay (NCI)
